Measured values reported in PubChem BioAssay (NCI).
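Following 48 hours of exposure in 96-well plates, responses at five concentrations were used to interpolate endpoints linearly. TGI: concentration producing complete growth inhibition.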

Key:
Test in all cases: inhibition of tumour cell growth, NCI panel, 48 h
MCF7 breast = system: MCF7 breast
NCI-H460 lung = system: NCI-H460 lung
SK-OV-3 ovarian = system: SK-OV-3 ovarian
MDA-MB-435 = system: MDA-MB-435
CAKI-1 renal = system: CAKI-1 renal
SW-620 colon = system: SW-620 colon
SN12C renal = system: SN12C renal
MDA-MB-231 breast = system: MDA-MB-231 breast
CCRF-CEM leukemia = system: CCRF-CEM leukemia
SK-MEL-2 melanoma = system: SK-MEL-2 melanoma
SNB-75 CNS = system: SNB-75 CNS
MALME-3M melanoma = system: MALME-3M melanoma
EKVX NSCLC = system: EKVX NSCLC
T-47D breast = system: T-47D breast
SK-MEL-5 melanoma = system: SK-MEL-5 melanoma
HCC-2998 colon = system: HCC-2998 colon
NCI/ADR-RES ovarian = system: NCI/ADR-RES ovarian
A498 renal = system: A498 renal
HL-60(TB) leukemia = system: HL-60(TB) leukemia
COLO 205 colon = system: COLO 205 colon
KM12 colon = system: KM12 colon
MDA-N = system: MDA-N
SF-539 CNS = system: SF-539 CNS
SNB-19 CNS = system: SNB-19 CNS
A549 NSCLC = system: A549 NSCLC
NCI-H23 lung = system: NCI-H23 lung
NCI-H522 lung = system: NCI-H522 lung
MOLT-4 leukemia = system: MOLT-4 leukemia
PC-3 prostate = system: PC-3 prostate
HT29 colon = system: HT29 colon
LOX IMVI melanoma = system: LOX IMVI melanoma
SF-295 CNS = system: SF-295 CNS
OVCAR-4 ovarian = system: OVCAR-4 ovarian
TK-10 renal = system: TK-10 renal
UO-31 renal = system: UO-31 renal
HS 578T breast = system: HS 578T breast
ACHN renal = system: ACHN renal
RXF 393 renal = system: RXF 393 renal
BT-549 breast = system: BT-549 breast
M14 melanoma = system: M14 melanoma
IGROV1 ovarian = system: IGROV1 ovarian
OVCAR-3 ovarian = system: OVCAR-3 ovarian
NCI-H226 lung = system: NCI-H226 lung
UACC-257 melanoma = system: UACC-257 melanoma
HOP-62 NSCLC = system: HOP-62 NSCLC
DU-145 prostate = system: DU-145 prostate
SF-268 CNS = system: SF-268 CNS
K-562 leukemia = system: K-562 leukemia
786-0 renal = system: 786-0 renal
U251 CNS = system: U251 CNS
SK-MEL-28 melanoma = system: SK-MEL-28 melanoma
UACC-62 melanoma = system: UACC-62 melanoma
HCT-15 colon = system: HCT-15 colon
HCT-116 colon = system: HCT-116 colon
HOP-92 NSCLC = system: HOP-92 NSCLC
OVCAR-5 ovarian = system: OVCAR-5 ovarian
OVCAR-8 ovarian = system: OVCAR-8 ovarian
SR leukemia = system: SR leukemia

**Q.** Which TGI (MCF7 breast) does the source give for `O=C1Nc2ccccc2C1=Nc1ccc(S(=O)(=O)Nc2nccs2)cc1` here?
**A.** > 100 µM

**Q.** What about the TGI (NCI-H460 lung) of the same molecule?
**A.** > 100 µM

**Q.** And the TGI (SK-OV-3 ovarian)?
**A.** > 100 µM

**Q.** What about the TGI (MDA-MB-435) of the same molecule?
**A.** > 100 µM

**Q.** What about the TGI (CAKI-1 renal) of the same molecule?
**A.** > 100 µM

**Q.** What about the TGI (SW-620 colon) of the same molecule?
**A.** > 100 µM

**Q.** And the TGI (SN12C renal)?
**A.** > 100 µM

**Q.** And the TGI (MDA-MB-231 breast)?
**A.** > 100 µM

**Q.** What about the TGI (CCRF-CEM leukemia) of the same molecule?
**A.** > 100 µM

**Q.** And the TGI (SK-MEL-2 melanoma)?
**A.** > 100 µM

**Q.** What about the TGI (SNB-75 CNS) of the same molecule?
**A.** > 100 µM

**Q.** What about the TGI (MALME-3M melanoma) of the same molecule?
**A.** > 100 µM

**Q.** And the TGI (EKVX NSCLC)?
**A.** > 100 µM

**Q.** What about the TGI (T-47D breast) of the same molecule?
**A.** > 100 µM

**Q.** What about the TGI (SK-MEL-5 melanoma) of the same molecule?
**A.** > 100 µM

**Q.** What about the TGI (HCC-2998 colon) of the same molecule?
**A.** > 100 µM

**Q.** What about the TGI (NCI/ADR-RES ovarian) of the same molecule?
**A.** > 100 µM

**Q.** What about the TGI (A498 renal) of the same molecule?
**A.** > 100 µM

**Q.** And the TGI (HL-60(TB) leukemia)?
**A.** > 100 µM

**Q.** And the TGI (COLO 205 colon)?
**A.** > 100 µM

**Q.** What about the TGI (KM12 colon) of the same molecule?
**A.** > 100 µM

**Q.** What about the TGI (MDA-N) of the same molecule?
**A.** > 100 µM

**Q.** What about the TGI (SF-539 CNS) of the same molecule?
**A.** > 100 µM

**Q.** And the TGI (SNB-19 CNS)?
**A.** > 100 µM

**Q.** And the TGI (A549 NSCLC)?
**A.** > 100 µM

**Q.** What about the TGI (NCI-H23 lung) of the same molecule?
**A.** > 100 µM

**Q.** And the TGI (NCI-H522 lung)?
**A.** > 100 µM

**Q.** What about the TGI (MOLT-4 leukemia) of the same molecule?
**A.** > 100 µM

**Q.** What about the TGI (PC-3 prostate) of the same molecule?
**A.** > 100 µM

**Q.** What about the TGI (HT29 colon) of the same molecule?
**A.** > 100 µM

**Q.** And the TGI (LOX IMVI melanoma)?
**A.** > 100 µM

**Q.** What about the TGI (SF-295 CNS) of the same molecule?
**A.** > 100 µM

**Q.** And the TGI (OVCAR-4 ovarian)?
**A.** > 100 µM

**Q.** What about the TGI (TK-10 renal) of the same molecule?
**A.** > 100 µM

**Q.** What about the TGI (UO-31 renal) of the same molecule?
**A.** > 100 µM

**Q.** And the TGI (HS 578T breast)?
**A.** > 100 µM

**Q.** And the TGI (ACHN renal)?
**A.** > 100 µM

**Q.** And the TGI (RXF 393 renal)?
**A.** > 100 µM

**Q.** And the TGI (BT-549 breast)?
**A.** > 100 µM

**Q.** What about the TGI (M14 melanoma) of the same molecule?
**A.** > 100 µM

**Q.** What about the TGI (IGROV1 ovarian) of the same molecule?
**A.** > 100 µM

**Q.** What about the TGI (OVCAR-3 ovarian) of the same molecule?
**A.** > 100 µM

**Q.** And the TGI (NCI-H226 lung)?
**A.** > 100 µM

**Q.** What about the TGI (UACC-257 melanoma) of the same molecule?
**A.** > 100 µM

**Q.** What about the TGI (HOP-62 NSCLC) of the same molecule?
**A.** > 100 µM

**Q.** And the TGI (DU-145 prostate)?
**A.** > 100 µM

**Q.** What about the TGI (SF-268 CNS) of the same molecule?
**A.** > 100 µM

**Q.** What about the TGI (K-562 leukemia) of the same molecule?
**A.** > 100 µM

**Q.** And the TGI (786-0 renal)?
**A.** > 100 µM

**Q.** What about the TGI (U251 CNS) of the same molecule?
**A.** > 100 µM

**Q.** And the TGI (SK-MEL-28 melanoma)?
**A.** > 100 µM

**Q.** And the TGI (UACC-62 melanoma)?
**A.** > 100 µM

**Q.** And the TGI (HCT-15 colon)?
**A.** > 100 µM

**Q.** What about the TGI (HCT-116 colon) of the same molecule?
**A.** > 100 µM

**Q.** And the TGI (HOP-92 NSCLC)?
**A.** > 100 µM

**Q.** And the TGI (OVCAR-5 ovarian)?
**A.** > 100 µM

**Q.** And the TGI (OVCAR-8 ovarian)?
**A.** > 100 µM

**Q.** What about the TGI (SR leukemia) of the same molecule?
**A.** > 100 µM

**Q.** `COc1cc(S(=O)(=O)Nc2nc(-c3ccc(N=Cc4cccs4)cc3)cs2)ccc1Cl` was tested. Which TGI (MCF7 breast) did it give?
**A.** > 100 µM

**Q.** And the TGI (NCI-H460 lung)?
**A.** > 100 µM

**Q.** And the TGI (SK-OV-3 ovarian)?
**A.** > 100 µM

**Q.** What about the TGI (MDA-MB-435) of the same molecule?
**A.** > 100 µM

**Q.** And the TGI (CAKI-1 renal)?
**A.** > 100 µM

**Q.** What about the TGI (SW-620 colon) of the same molecule?
**A.** > 100 µM

**Q.** What about the TGI (SN12C renal) of the same molecule?
**A.** 64.1 µM

**Q.** What about the TGI (MDA-MB-231 breast) of the same molecule?
**A.** > 100 µM

**Q.** And the TGI (CCRF-CEM leukemia)?
**A.** > 100 µM

**Q.** And the TGI (SK-MEL-2 melanoma)?
**A.** > 100 µM

**Q.** What about the TGI (SNB-75 CNS) of the same molecule?
**A.** > 100 µM

**Q.** And the TGI (MALME-3M melanoma)?
**A.** > 100 µM

**Q.** And the TGI (EKVX NSCLC)?
**A.** > 100 µM

**Q.** And the TGI (T-47D breast)?
**A.** > 100 µM

**Q.** And the TGI (SK-MEL-5 melanoma)?
**A.** > 100 µM

**Q.** What about the TGI (HCC-2998 colon) of the same molecule?
**A.** > 100 µM

**Q.** And the TGI (NCI/ADR-RES ovarian)?
**A.** > 100 µM

**Q.** What about the TGI (A498 renal) of the same molecule?
**A.** > 100 µM

**Q.** And the TGI (HL-60(TB) leukemia)?
**A.** > 100 µM

**Q.** What about the TGI (COLO 205 colon) of the same molecule?
**A.** > 100 µM

**Q.** And the TGI (KM12 colon)?
**A.** > 100 µM

**Q.** And the TGI (MDA-N)?
**A.** > 100 µM

**Q.** And the TGI (SF-539 CNS)?
**A.** > 100 µM

**Q.** And the TGI (SNB-19 CNS)?
**A.** > 100 µM

**Q.** What about the TGI (A549 NSCLC) of the same molecule?
**A.** > 100 µM

**Q.** What about the TGI (NCI-H23 lung) of the same molecule?
**A.** > 100 µM

**Q.** What about the TGI (NCI-H522 lung) of the same molecule?
**A.** > 100 µM

**Q.** And the TGI (MOLT-4 leukemia)?
**A.** 98.7 µM

**Q.** And the TGI (PC-3 prostate)?
**A.** > 100 µM

**Q.** What about the TGI (HT29 colon) of the same molecule?
**A.** > 100 µM

**Q.** And the TGI (LOX IMVI melanoma)?
**A.** > 100 µM

**Q.** And the TGI (SF-295 CNS)?
**A.** > 100 µM

**Q.** And the TGI (OVCAR-4 ovarian)?
**A.** > 100 µM

**Q.** And the TGI (TK-10 renal)?
**A.** > 100 µM

**Q.** What about the TGI (UO-31 renal) of the same molecule?
**A.** > 100 µM

**Q.** And the TGI (HS 578T breast)?
**A.** > 100 µM

**Q.** What about the TGI (ACHN renal) of the same molecule?
**A.** > 100 µM

**Q.** What about the TGI (RXF 393 renal) of the same molecule?
**A.** 49.6 µM

**Q.** And the TGI (BT-549 breast)?
**A.** > 100 µM

**Q.** What about the TGI (M14 melanoma) of the same molecule?
**A.** > 100 µM

**Q.** And the TGI (IGROV1 ovarian)?
**A.** > 100 µM

**Q.** And the TGI (OVCAR-3 ovarian)?
**A.** 78.6 µM

**Q.** What about the TGI (NCI-H226 lung) of the same molecule?
**A.** > 100 µM

**Q.** What about the TGI (UACC-257 melanoma) of the same molecule?
**A.** > 100 µM

**Q.** What about the TGI (HOP-62 NSCLC) of the same molecule?
**A.** > 100 µM

**Q.** And the TGI (DU-145 prostate)?
**A.** > 100 µM

**Q.** And the TGI (SF-268 CNS)?
**A.** > 100 µM

**Q.** And the TGI (K-562 leukemia)?
**A.** > 100 µM

**Q.** What about the TGI (786-0 renal) of the same molecule?
**A.** > 100 µM

**Q.** And the TGI (U251 CNS)?
**A.** > 100 µM

**Q.** What about the TGI (SK-MEL-28 melanoma) of the same molecule?
**A.** > 100 µM

**Q.** And the TGI (UACC-62 melanoma)?
**A.** 48.7 µM

**Q.** And the TGI (HCT-15 colon)?
**A.** > 100 µM

**Q.** What about the TGI (HCT-116 colon) of the same molecule?
**A.** > 100 µM

**Q.** And the TGI (HOP-92 NSCLC)?
**A.** > 100 µM

**Q.** What about the TGI (OVCAR-5 ovarian) of the same molecule?
**A.** > 100 µM

**Q.** And the TGI (OVCAR-8 ovarian)?
**A.** > 100 µM

**Q.** And the TGI (SR leukemia)?
**A.** 57 µM
